Data reported in patent publication US11149267B2, “Functional genomics using CRISPR-Cas systems, compositions, methods, screens and applications thereof” (The Broad Institute, Inc., priority 2013, dated 2021).

Columns and labels:
[1] = Dosing of screening agents, CellTiter-Glo cell viability assay; format: cell-based; conditions: human, WT KBM7 cells
Description: (§1) Dosing of screening agents: To determine the appropriate dose of 6-TG and etoposide for screening in KBM7 and HL60 cells, cells were seeded in 96-well tissue culture plates at 4000 cells/well in 200 μL of media and were treated in triplicate with varying concentrations of 6-TG and etoposide. A CellTiter-Glo cell viability assay was performed after 4 days to assess drug toxicity. Concentrations at which the viability of WT KBM7 and HL60 cells fell below 5% were chosen.
Pooled screening: In all screens, 90 million target cells were transduced with viral sub pools and selected with blasticidin 24 hours after infection for 3 days. For the 6-TG screen, Cas9-KBM7 cells were cultured in media containing 400 nM 6-TG. For screens with etoposide, Cas9-KBM7 and Cas9-HL60 cells were cultured in media containing 130 nM and 200 nM of etoposide, respectively. Cultures of untreated Cas9-KBM7 and Cas9-HL60 cells were also maintained in parallel. All cells were passaged every 3 days, and after 12 days, cells were harvested for genomic DNA extraction. In negative selection screens, 10 million cells were harvested for genomic DNA extraction 24 hours after infection. The remaining cells were maintained for 12 doublings, before being harvested for genomic DNA extraction.

[2] = CellTiter-Glo cell viability assay in HL60 cells; format: cell-based, human; conditions: human, WT HL60 cells; at the concentration chosen for screening (200 nM etoposide); 4 days
Description: (§2) Viability assay: Cells were seeded in 96-well tissue culture plates at 4000 cells/well in 200 μL of media under various treatment conditions. After 3 days, 35 μL of CellTiter-Glo reagent (Promega) was added to each well, mixed for 5 minutes, and the luminescence was read on the SpectraMax M5 Luminometer (Molecular Devices). All experiments were performed in triplicate.
as §1
(§3) Pooled screening: In all screens, 90 million target cells were transduced with viral sub pools and selected with blasticidin 24 hours after infection for 3 days. For the 6-TG screen, Cas9-KBM7 cells were cultured in media containing 400 nM 6-TG. For screens with etoposide, Cas9-KBM7 and Cas9-HL60 cells were cultured in media containing 130 nM and 200 nM of etoposide, respectively. Cultures of untreated Cas9-KBM7 and Cas9-HL60 cells were also maintained in parallel. […]

HL60 cells = test: CellTiter-Glo cell viability assay in HL60 cells; format: cell-based, human; conditions: versus parental or sgAAVS1-modified HL60 cells; viability by cellular ATP
Description: as §2, §1, §3

Row | SMILES | viability at 4 days, 130 nM ([1]; at the concentration chosen for screening (130 nM etoposide)) [%] | viability at 4 days, 200 nM [2] [%] | resistance to etoposide of isogenic HL60 lines with sgRNAs against TOP2A and CDK6 (HL60 cells) | viability at 4 days, 400 nM ([1]; at the concentration chosen for screening (400 nM 6-TG)) [%]
1 | COc1cc([C@@H]2c3cc4c(cc3[C@@H](O[C@@H]3O[C@@H]5CO[C@@H](C)O[C@H]5[C@H](O)[C@H]3O)[C@H]3COC(=O)[C@H]23)OCO4)cc(OC)c1O [etoposide] | < 5 | < 5 | much more resistant | 
2 | Nc1nc2nc[nH]c2c(=S)[nH]1 [6-TG, 6-thioguanine] |  |  |  | < 5
